Results reported in patent publication US20090004137A1, “Uridine Derivatives as Antiviral Drugs Against a Flaviviridae, Especially Hcv” (priority 2004, published 2009).
Like-named read-outs stand apart in the source and are kept apart here.

Key:
[1] = system: subgenomic HCV replicon BM4-5 in Huh7 cells; assay: Antiviral assay on HCV subgenomic replicon, Northern blot of (+)-strand HCV RNA; format: cell-based, Hepatitis C Virus; conditions: for IC50: read-out: IC50, anti-HCV activity, (+)-RNA; for IC90: read-out: IC90, anti-HCV activity, (+)-RNA; for Selectivity Index (SI), ratio between CC50 and IC50: replicon system
Procedure: (§1) Antiviral and Cytotoxicity assays for HCV. Huh7 cells harbouring the subgenomic HCV replicon BM4-5 (J. T. Guo et al., J. Virol. 2001, 75: 8516-8523) were used in this study. Cells were maintained in Dulbecco's modified Eagle's medium high glucose 4.5 g/l (LifeTechnlogies) supplemented with 10% fetal bovine serum, 1% L-glutamine, 1% penicillin and streptomycin, 1% L-Pyruvate and 500 μg/ml of geneticien (G418, Invitrogen). Geneticin was used to select cells permitting the HCV RNA replication. Cells were passaged every four days with a 1:4 ratio.
Cells were seeded in 6-wells plates at a density of 2.5×10^5 cells per well, sixteen hours before the beginning of treatment. […] The administration of each drug was renewed every day for three consecutive days. Ribarivin (ICN Pharmaceuticals), mycophenolic acid (MPA, Sigma), and interferon alpha-2b (IntronA®)) were used in the same conditions as positive controls. The concentrations used for these drugs were respectively: 0; 0.5; 1; 2; 4; 8; 16; 32; 64; 128; 256 and 512 μM for ribavirin, 0; 2.5; 5; 10; 20; 40 μM for mycophenolic acid, and 0; 0.1; 1; 10; 100 and 1000 Ul/mL for IFN alpha-2b. Total RNA was extracted at the end of treatment (24 hours after the last day of treatment) with the <<Extract all>> reagent (Eurobio), which is a mix of phenol and guanidium thiocyanate. Northern blot analysis was then performed using the NorthernMax™-Gly kit (Ambion), following manufacturer's instructions. Five micrograms of total RNA were denaturated in glyoxal buffer at 50° C. for 30 minutes, separated by 1.1% agarose gel electrophoresis, and then transferred for 12 hours onto a charged nylon membrane (HybondN+, Amersham). Hybridization was carried out with three different [^32P]CTP-labelled riboprobes obtained by in vitro transcription (Riboprobe in vitro transcription system, Promega). Two probes were complementary to the NS5A region of the HCV genome of negative polarity and positive polarity. A third probe was complementary to the beta-actin mRNA and obtained by in vitro transcription from a specific plasmid (PTRI beta actin human, reference 7424, Ambion). First, the blot was hybridized with the riboprobes directed against the negative strand of HCV RNA and beta-actin mRNA, respectively. After one night of hybridization at 68° C., the membrane was washed, then exposed to X-ray film and a phosphor screen (phosphorimager). This screen was then scanned and quantitative analysis was achieved using ImageQuant software. The amount of beta-actin mRNA was used as an internal loading control to standardize the amount of HCV RNA detected. The same membrane was subsequently hybridized with the […] to determine the level of positive strand HCV RNA, suing the same approach.

BVDV strain NADL = assay: Antiviral assay on BVDV, inhibition of cytopathic effect in MDBK cells; format: cell-based; conditions: Bovine viral diarrhea virus isolates and strains, read-out: EC50 ECP inhibition (3rd day p.i.)
Procedure: (§2) Antiviral and cytotoxicity assays for BVDV. Noncytopathic-BVDV-free MDBK cells (European Collection of Animal Cell Cultures, Porton Down, U.K.) were kindly provided by Dr N. Zitzmann (Oxford University). Cells were propagated in DMEM F12 (Eurobio) supplemented with 10% horse serum (Life Technologies), 1% L-glutamin (Gibco), 1% penicillin ansd streptomycin (Gibco).
MDBK cells were seeded in microwell plates (96 wells) at a density of 1.10^5 cells per well, then infected with BVDV (strain NADL) (at dilution inducing 100%/o cytopathic effect three days post inoculation, i.e approximately 10 plaque forming units (pfu) per well at three days post infection) for one hour, at 37° C. After a wash with DMEM, infected cells were incubated for three days in the presence of absence of drug; each concentration of drug was added in 12 consecutive wells. The appearance of CPE was visually checked the third day post inoculation to evaluate the IC50 on BVDV (strain NADL), according to the different conditions of treatment.

[2] = Cytotoxicity on uninfected MDBK cells (neutral red); format: cell-based; conditions: cattle (bovine)
Procedure: (§3) For cell viability assays, cells were seeded in 96-well plates at a density of 12,500 cells per well. They were treated by the different molecules with the same concentrations and conditions than those used for the antiviral assays. Then, cell viability was measured by neutral red assay. Neutral red specifically colors lysosomes and its accumulation depends on cellular membrane integrity. The yield of neutral red incorporated in cells is proportional to the number of living cells. At the end of treatment, culture medium was removed; cells were washed by PBS, then coloured with neutral red at 0.005% for 3 hours at 37° C. Cells were then fixed 1 minute by formol calcium and lysed by atreatment with a vol/vol mixture of acetic acid and ethanol. After 15 minutes incubation, absorbance was read at 490 nm.
as §2, with “(Gibco). The NADL cytopathic (CP) BVDV strain was obtained from ATCC: VR-504.” for “(Gibco).”
Uninfected MDBK cells were grown in the absence or presence of varying concentrations of drug tested. After 3 days, toxicity was evaluated by neutral red coloration as described above.

[3] = Cell viability (neutral red) on the replicon system; format: cell-based; conditions: human, Huh7 cells harbouring the subgenomic HCV replicon BM4-5, neutral red test, drug renewed daily for three days, read-out: CC50, cytotoxicity on Replicon System
Procedure: as §1, §3

VERO cells = assay: Cytotoxicity against VERO cells; format: cell-based
[4] = system: Huh7 cells harbouring the subgenomic HCV replicon BM4-5; assay: Cell viability (neutral red) on the replicon system; format: cell-based; conditions: neutral red test, drug renewed daily for three days, read-out: CC50, cytotoxicity on Replicon System
Procedure: as §1, §3

PBM cells = assay: Cytotoxicity against PBM cells; format: cell-based
CEM cells = assay: Cytotoxicity against CEM cells; format: cell-based
[5] = Cytotoxicity against VERO cells; format: cell-based; conditions: African green monkey
[6] = Cytotoxicity against PBM cells; format: cell-based; conditions: human
[7] = Cytotoxicity against CEM cells; format: cell-based; conditions: human
[8] = Hepatitis C virus, 72 h, Huh7 BM4-5 replicon, positive strand HCV RNA by Northern blot, three days treatment
[9] = Huh7 BM4-5 replicon, positive strand HCV RNA by Northern blot, three days treatment

Compound | IC50 ([1]; Hepatitis C virus, 72 h) [µM] | IC90 [1, 8] [µM] | Selectivity Index (SI), ratio between CC50 and IC50 [1] | EC50 (BVDV strain NADL) [µM] | CC50 at 3 days [2] [µM] | CC50 at 3 days [3] [µM] | IC50 [1, 9] [µM] | IC90 [1, 9] [µM] | CC50 (VERO cells) [µM] | CC50 [4] [µM] | CC50 (PBM cells) [µM] | CC50 (CEM cells) [µM] | IC50 [1, 8] [µM] | CC50 [5] [µM] | CC50 [6] [µM] | CC50 [7] [µM]
NC(=O)c1ncn([C@@H]2O[C@H](CO)[C@@H](O)[C@H]2O)n1 [Ribavirin, 1-β-D-ribofuranosyl-1,2,4-triazole-3-carboxamide, reference compound] | 170 | > 512 | <1 | 36 | > 100 | 110 | – | – | – | – | – | – | – | – | – | –
O=c1[nH]c(=O)n([C@@H]2O[C@H](CO)[C@@H](O)[C@H]2O)cc1/C(Cl)=C\I [Compound 16b, (E)-5-(l-Chloro-2-iodovinyl)-uridine] | – | – | – | – | – | – | 74.9 | > 250 | > 100 | > 200 | > 100 | > 100 | – | – | – | –
O=c1[nH]c(=O)n([C@@H]2O[C@H](CO)C[C@H]2O)cc1/C(Br)=C\I [Compound 15c, (E)-5-(1-Bromo-2-iodovinyl)-3′-deoxyuridine] | – | > 200 | ≦1 | > 100 | > 100 | > 200 | – | – | – | – | – | – | > 200 | > 100 | 71.5 | 79.3
O=c1[nH]c(=O)n([C@@H]2O[C@H](CO)[C@@H](O)[C@H]2O)cc1C#CBr [Compound 13b, 5-(2-bromoethynyl)-uridine] | – | > 200 | 3.2 | > 100 | > 100 | 188 | – | – | – | – | – | – | 58 | > 100 | > 100 | > 100
